Measurements as given in patent US10080779B2, “Method for increasing the expression of anti-microbial peptides by keratinocytes comprising administering a composition comprising IL-17, TNF-alpha and OSM” (Universite D'Angers, priority 2004, dated 2018).

B1: IL-31: cytokine whose receptor is a heterodimer of GPL and an OSMR subunit (protein, UniProt Q6EBC2 24-164, looked up)
Interleukin-31: SHTLPVRLLRPSDDVQKIVEELQSLSKMLLKDVEEEKGVLVSQNYTLPCLSPDAQPPNNIHSPAIRAYLKTIRQLDNKSVIDEIIEHLDKLIFQDAPETNISVPTDTHECKRFILTISQQFSECMDLALKSLTSGAQQATT

Experiments:
STAT3 = STAT3 phosphorylation in NHEK (Western blot); type: cell-based, human; settings: NHEK stimulated 15 min with the cytokine
Method: For STAT3 and MAPK phosphorylation, NHEK were stimulated for 15 min in the presence of the indicated cytokine. Cells were lysed in SDS sample buffer (62.5 mM Tris-HCl pH 6.8, 2% SDS, 10% glycerol, 50 mM DTT, 0.1% bromophenol blue), sonicated and then submitted to SDS-PAGE and transferred onto an Immobilon membrane. The membranes were subsequently incubated overnight with the primary antibody, before being incubated with the appropriate peroxidase-labelled secondary antibody for 60 min. The reaction was visualized by chemiluminescence according to the manufacturer's instructions. Membranes were stripped in 0.1 M glycine pH 2.8 for 2 h and neutralized in 1 M Tris-HCl pH 7.6 before reblotting. For neutralizing experiments, NHEK were incubated with the appropriate antibodies for 2 h before stimulation.

NHEK [1] = test: RT-QPCR of antimicrobial peptide and chemokine genes in NHEK; type: cell-based, human; settings: 10 ng/ml, 24 h
Method: (§1) NHEK were obtained as previously described, from surgical samples of healthy breast skin (Boniface et al, 2005). NHEK were cultured to 80% of confluence and then starved for 24 h in Keratinocyte SFM without addition of growth factors before stimulation. Cells were stimulated with or without 10 ng/ml of recombinant IL-17A, OSM, TNFα, IL-22 and IL-1α alone or in combination (R&D systems Europe, Lille, France) during 24 h for mRNA quantification or 48 h to 96 h for protein quantification.
NHEK and skin total RNA were isolated and reverse-transcribed as previously described (Boniface et al, 2005). Quantitative real time PCR was carried using the LightCycler-FastStart DNA Master SYBR® Green I kit on LightCycler 480 (Roche Diagnostics, Meylan, France). The reaction components were 1×DNA Master Mix, and 0.5 μM of HPLC purified sense and anti-sense oligonucleotides purchased from Eurogentec (Eurogentec France, Angers, France), designed using Primer3 software. Samples were normalized to three independent control housekeeping genes (G3PDH, RPL13A or ACTB for human samples and G3PDH, HMBS or B2m for mouse samples) and reported according to the ΔΔCT method as RNA fold increase: 2^ΔΔCT=2^ΔCT sample−ΔCT eference. For comparison of normal skin and psoriatic skin the REST 2008 software was used (Pfaffl et al., 2002).

NHEK [2] = test: Cytokine measurement by ELISA in NHEK culture supernatants; type: cell-based, human; settings: 10 ng/ml, 96 h
Method: as §1
Levels of BD2, BD3 and CXCL8 were determined using Human ELISA development kit (Peprotech), and CXCL1 and CXCL5 with DuoSet reagents (R&D Systems Europe).

NHEK [3] = test: Keratinocyte differentiation marker (KDM) mRNA in NHEK (RT-PCR); type: cell-based, human; settings: 24 h; for mRNA expression of CK1, DSG1, DSC1, FLG, CLSP, LOR and FABPS: single cytokines 10 ng/ml
Method: (§2) Normal human epidermal keratinocytes (NHEK) were obtained as previously described, from surgical samples of healthy breast skin (Boniface et al, 2005). NHEK were cultured to 80% of confluence allowing the expression of a large panel of keratinocyte differentiation markers, and then starved for 24 h in Keratinocyte SFM containing 0.03 mM Ca^2+ (Invitrogen Life Technologies, Cergy Pontoise, France) before stimulation. Confluent differentiated cells were stimulated with or without recombinant IL-17A, OSM, TNFα, IL-22 and IL-1α alone at maximum effective concentrations (reported previously around 10 ng/ml (Boniface et al, 2005 and Boniface et al, 2007)) or in combination (R&D systems Europe, Lille, France) during 2 h to 72 h for mRNA quantification. RHE were generated on polycarbonate culture inserts, from surgical samples of paediatric foreskins as previously described (Guenou et al., 2009). RHE were stimulated with or without recombinant IL-17A, OSM, TNFα, IL-22 and IL-1α alone or in combination, with or without a Janus protein Tyrosine Kinases (JAKs) inhibitor 10 μM (Calbiochem, 420099), during 24 h for mRNA quantification or during 72 h for immunohistological analysis.
(§3) NHEK, RHE and murine skin total RNA were isolated using NucleoSpin® RNA II kit (Macherey-Nagel, Hoerdt, France) and reverse-transcribed with SuperScript® II Reverse Transcriptase (Invitrogen Life Technologies) according to the manufacturer's instructions. Quantitative real time PCR was carried out using the LightCycler-FastStart DNA Master SYBR® Green I kit on LightCycler 480 (Roche Diagnostics, Meylan, France). The reaction components were 1×DNA Master Mix, and 0.5 μM of HPLC purified sense and anti-sense oligonucleotides purchased from Eurogentec (Eurogentec France, Angers, France), designed using Primer3 software. The stability of the housekeeping gene expression has been assessed by using GeNorm algorithm. […] Thus samples were normalized to G3PDH housekeeping gene and reported according to the ΔΔCT method as RNA fold increase: 2^ΔΔCT=2^ΔCT sample−ΔCT reference.

NHEK [4] = test: cDNA macroarrays analysis of 36 cytokines on 154 genes in NHEK; type: cell-based, human; settings: 10 ng/ml, 24 h
Method: The comparison of the effects of 36 different cytokines on the expression of 154 genes of potential interest for skin physiology was performed using home-made cDNA macroarrays analysis. After cytokine stimulation, total RNA was extracted using TRIzoI® Reagent (Invitrogen life Technologies) and conventional 33P-cDNA target synthesis and hybridization were performed (Boniface et al, 2007). Genes were considered regulated if expression levels differed more than 3-fold relative to untreated control and 3-fold relative to mean background noise.

NHEK [5] = test: S100A7 Western blotting in NHEK (Example 13); type: cell-based, human; settings: 10 ng/ml, 96 h
Method: After 96 h of stimulation, NHEK lysis was performed as previously described (Boniface et al, 2005). After separation by SDS-PAGE, proteins were transferred to nitrocellulose membranes (Amersham pharmacia biotech) by electroblotting. S100A7 was detected with mouse anti-human S100A7 mAb (Imgenex, San Diego, Calif., USA) and sheep anti-mouse IgG peroxidase-conjugated polyclonal Ab (Amersham Biosciences). Bound Ab were detected by chemiluminescence (ECL Hyperfilm and ECL Plus Reagen, Amersham Biosciences Ltd).

RHE [6] = test: RHE histology and immunohistochemistry (Example 14); type: cell-based, human; settings: single cytokines, 72 h
Method: as §2
RHE were washed and fixed with formaldehyde solution. Fixed tissues were dehydrated with increasing ethanol concentrations, embedded in paraffin and sections were carried out using a microtome (4 μm thickness). The sections were deparaffinised, washed and incubated with hydrogen peroxide. The sections were incubated with anti-CK10 (SantaCruz, SC-23877), anti-LOR (Eurogentec, PRB-145P), anti-FLG (SantaCruz, SC-66192), anti-IVL (Biomedical Technologies, BT-601), anti-S100A7 (Clinisciences, IMG-409A) and then detected using a biotin-conjugated secondary antibody (Vector, RTU vectastain universal quick kit, PK-7800). After peroxidase-conjugated streptavidine (Vector, RTU vectastain universal quick kit, PK-7800) and peroxidase substrate addition (Dako, Substrat hyper-sensible AEC+), nuclei were counter-stained using a solution of hematoxylin. Sections were observed using a NIKON E400 microscope. The images were captured using a NIKON DS-Ril and processed with NIS-Elements 3.10 software.

[7] = system: normal human keratinocytes (NHEK); test: Cytokine cocktails on S100A7, hBD2/4, KRT10 mRNA in NHEK (RT-Q-PCR); type: cell-based; settings: NHEK 24 hrs, 1 ng/ml each
Method: (§4) Quantitative real time PCR was carried out using the LightCycler-FastStart DNA Master^PLUS SYBR Green I kit (Roche, Mannheim, Germany). The reaction components were 1× FastStart DNA Master^PLUS SYBR Green I and 0.5 μM of forward and reverse primers for S100A7 (forward 5′-[…]-3′ (SEQ ID No: 9) and reverse 5′-[…]-3′ (SEQ ID No: 10)), S100A8 (Pattyn, Speleman et al. 2003), S100A9 (forward 5′-[…]-3′ (SEQ ID No: 11) and reverse 5′-[…]-3′ (SEQ ID No: 12)), hBD2/4 (forward 5′-[…]-3′ (SEQ ID No: 13) and reverse 5′-[…]-3′ (SEQ ID No: 14)), KRT10 (forward 5′-[…]-3′ (SEQ ID No: 15) and reverse 5′-[…]-3′ (SEQ ID No: 16)), and hydroxymethyl-bilane synthase (HMBS) as a housekeeping gene (Vandesompele, De Preter et al. 2002). After cDNA fluorescent quantification using propidium iodide, 250 ng, 25 ng and 2.5 ng of cDNA were added as PCR template in the LightCycler glass capillaries. The cycling conditions comprised a 10 min polymerase activation at 95° C. and 50 cycles at 95° C. for 10 s, 64° C. for 5 s and 72° C. for 18 s with a single fluorescence measurement. […] A mathematical model was used to determine the relative quantification of target genes compared to HMBS reference gene (Pfaffl 2001).
To that aim, confluent normal human keratinocytes (NHEK) were treated for 24 hrs with the indicated mix of cytokines (each cytokine at 1 ng/ml final concentration). Total RNA was extracted, reverse-transcribed and the expression of the selected genes was analyzed by real-time PCR as described.

RHE [8] = test: KDM mRNA in reconstituted human epidermis (RT-PCR); type: cell-based; settings: 24 h
Method: as §2, §3

NHEK [9] = test: In vitro keratinocyte migration assay; type: cell-based, human; settings: mitomycin-treated wounded NHEK; OSM 10 ng/ml, IL-31 100 ng/ml
Method: Keratinocytes were cultured in wells pre-coated with type I collagen (200 μg/ml, Institut Jacques Boy, Reims, France) until they reached 80% confluency. Cells were starved for 48 h in Keratinocyte SFM and then treated with 10 μg/ml of mitomycin C (Sigma) for 2 h to prevent cell proliferation. A cell-free area was created by scraping the keratinocyte monolayer with a plastic pipette tip. Keratinocytes migration to the cell-free area was evaluated after 48 h of culture in the absence or presence of EGF or OSM. Using an inverted phase contrast microscope. The number of migrating keratinocytes was counted in 4 non-overlapping fields. Values represent the mean±SEM of cells per mm^2 beyond the frontiers of the in vitro injury. Student's t test was used for statistical analysis.

NHEK [10] = test: RT-real time PCR of S100 mRNA in cytokine-stimulated NHEK; type: cell-based, human; settings: IL-31
Method: as §4

| Molecule | STAT3 tyrosine phosphorylation (P-STAT3) (STAT3) | Number of the 21 chemokine and antimicrobial peptide genes upregulated (NHEK [1]) | BD2 production, single cytokines (NHEK [2]) | BD3 production (NHEK [2]) | CXCL1, CXCL5, CXCL8 production, single cytokines (NHEK [2]) | Number of KDM whose control mRNA expression is partially restored on removal of the cytokine from M5 (NHEK [3]) [KDM] | mRNA expression of CK1, DSG1, DSC1, FLG, CLSP, LOR and FABPS (NHEK [3]) | Number of genes (of 154) whose expression is modified with at least a three fold increase or decrease (NHEK [4]) | S100A7 expression in NHEK (western blotting) (NHEK [5]) | CK10, LOR and FLG expression (immunohistology) (RHE [6]; RHE) | RHE histology (RHE [6]) | Effect of depleting the cytokine from the mix on activity of the complete cocktail [7] | Expression of KDM mRNA (CK10, CK1, LOR, FLG) (RHE [8]) | S100A7 mRNA expression (RHE [8]) | IVL expression (immunohistology) (RHE [6]; RHE) | S100A7 expression (immunohistology) (RHE [6]; RHE) | Keratinocyte migration to the cell-free area (NHEK [9]) | Expression of psoriasin and calgranulin A and B (S100A8-9) (NHEK [10]) |
| --- | --- | --- | --- | --- | --- | --- | --- | --- | --- | --- | --- | --- | --- | --- | --- | --- | --- | --- |
| LIF: leukemia inhibitory factor, cytokine of the IL-6 family | no evidence for a STAT3 activation | – | – | – | – | – | – | – | – | – | – | – | – | – | – | – | – | – |
| IL-1α: recombinant cytokine IL-1α | – | 19 | most potent inducers | significant increase | most effective | 3 | minor activities | at least five genes | most potent inducer | did not exhibit any activity | does not modify RHE histology | did not significantly decrease the activity | – | – | – | – | – | – |
| IL-22: recombinant cytokine IL-22 | – | 14 | – | significant increase | discrete effect | 4 | downregulate mRNA expression | at least five genes | – | decreases expression of CK10, LOR and FLG | significant keratinocyte hyperplasia | did not significantly decrease the activity | most active cytokines | strongly induced | strongly | strongly induced | – | – |
| B1 | recruits STAT3 signaling pathways | – | – | – | – | – | – | – | – | – | – | – | – | – | – | – | able to induce keratinocyte migration | induces expression |
